The source of these data is patent US7994121B2, “Stable analogs of peptide and polypeptide therapeutics” (Trustees of Tufts College, priority 2003, dated 2011).

“Also recorded” adds a separate entry of the source. Like-named read-outs stand apart in the source and are kept apart here. Square brackets hold non-standard residues; d marks the D form. Ends that are not written are not given here. Peptide text beside a SMILES is read from it. Tle = CC(C)(C)[C@H](N)C(=O)O

The target of one data set is human DPP IV (Homo sapiens, UniProt P27487). The data set can be described thus: Cleavage/degradation by DPP IV, HPLC/MS. In kind it is in vitro ADME. Conditions: for degradation by human DPP IV: two hours of treatment with human DPP IV, versus untreated peptide; for resistance to cleavage by DPP IV: in comparison to native GLP-1. The method, then:
However, it is most desirable to produce peptide analogs that are not only resistant to proteolysis, but also retain all or much of the biological activity of the native peptide. Accordingly, we conducted a series of experiments to ascertain whether these GLP-1 analogs which display robust resistance to degradation by DPP IV also retain biological activities of native GLP-1
TLE-modified GLP-1 analog was treated with human DPP IV for two hours, and degradation of the analog over time was compared to that of analog in the absence of DPP IV.

The target in another data set is thrombin (Homo sapiens, UniProt P00734). In words: Thrombin digestion of model peptide, C18 HPLC/MS. Conditions: 4 hours at 23° C., 10 nM thrombin, 0.1 M HEPES pH 8. In kind it is in vitro ADME. The method, then:
Briefly, the peptide […] (SEQ ID NO: 31) is a model substrate for thrombin. Thrombin cleaves after the arginine residue. Accordingly, the serine residue of this model peptide is the P′1 positions. WALAPR^↓SFA
To compare digestion of the model peptide analog by thrombin with that of the native model peptide, peptides were digested for 4 hours at 23° C. with 10 nM thrombin in 0.1 M HEPES pH 8, 0.14 M NaCl, 5 mM CaCl2, 0.5% PEG6000. Following digestion, C18 reverse phase HPLC of the digests was compared to the undigested peptides, and the mass spectra of the major peaks are shown for each chromatogram in FIG. 7.

For data set [1] the following is noted: cited from earlier work.

Sequence of human DPP IV (P27487 whole entry): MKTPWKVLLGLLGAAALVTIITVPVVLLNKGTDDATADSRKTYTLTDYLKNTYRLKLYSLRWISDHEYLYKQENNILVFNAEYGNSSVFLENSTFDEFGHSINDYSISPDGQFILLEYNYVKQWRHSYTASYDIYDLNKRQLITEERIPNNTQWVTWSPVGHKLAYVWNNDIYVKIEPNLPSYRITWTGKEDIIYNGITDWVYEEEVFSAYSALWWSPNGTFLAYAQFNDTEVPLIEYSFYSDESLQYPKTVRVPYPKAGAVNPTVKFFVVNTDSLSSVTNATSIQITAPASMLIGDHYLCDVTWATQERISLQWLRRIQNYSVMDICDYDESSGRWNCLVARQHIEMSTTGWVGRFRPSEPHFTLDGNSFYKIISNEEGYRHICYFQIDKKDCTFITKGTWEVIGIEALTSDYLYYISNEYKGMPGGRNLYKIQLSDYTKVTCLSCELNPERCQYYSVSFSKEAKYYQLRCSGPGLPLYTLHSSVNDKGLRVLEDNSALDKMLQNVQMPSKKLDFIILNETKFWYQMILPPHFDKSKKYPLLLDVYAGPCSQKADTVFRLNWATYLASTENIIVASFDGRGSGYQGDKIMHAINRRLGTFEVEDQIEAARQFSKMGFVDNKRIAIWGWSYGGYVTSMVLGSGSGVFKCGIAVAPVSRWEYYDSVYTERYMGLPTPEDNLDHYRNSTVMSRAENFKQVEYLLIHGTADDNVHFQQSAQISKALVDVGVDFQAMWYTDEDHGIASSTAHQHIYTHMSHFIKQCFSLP

“HAE GTFTSDVSSY LEGQAAKEFI AWLVKGRG [GLP-1 (7-37)]”: the “degradation by human DPP IV” value at human DPP IV is given as “time dependent degradation; also recorded: time dependent loss of peptide”. Consider “GLP-1 (BM): GLP1(7-37) analog wherein the P′1 glutamic acid is substituted by 3-butyl-methyl-glycine (HAXGTFTSDVSSYLEGQAAKEFIAWLVKGRG; non-natural residues)”, for which the “resistance to cleavage by DPP IV” value with human DPP IV is “resistant to cleavage by DPP IV”. The same measure, in the same setting: next, `CC[C@H](C)[C@H](NC(=O)[C@H](Cc1ccccc1)NC(=O)[C@H](CCC(=O)O)NC(=O)[C@H](CCCCN)NC(=O)[C@H](C)NC(=O)[C@H](C)NC(=O)[C@H](CCC(N)=O)NC(=O)CNC(=O)[C@H](CCC(=O)O)NC(=O)[C@H](CC(C)C)NC(=O)[C@H](Cc1ccc(O)cc1)NC(=O)[C@H](CO)NC(=O)[C@H](CO)NC(=O)[C@@H](NC(=O)[C@H](CC(=O)O)NC(=O)[C@H](CO)NC(=O)[C@@H](NC(=O)[C@H](Cc1ccccc1)NC(=O)[C@@H](NC(=O)CNC(=O)C(NC(=O)[C@H](C)NC(=O)[C@@H](N)Cc1c[nH]cn1)C(C)(C)C(=O)O)[C@@H](C)O)[C@@H](C)O)C(C)C)C(=O)N[C@@H](C)C(=O)N[C@@H](Cc1c[nH]c2ccccc12)C(=O)N[C@@H](CC(C)C)C(=O)N[C@H](C(=O)N[C@@H](CCCCN)C(=O)NCC(=O)N[C@@H](CCCNC(=N)N)C(=O)NCC(=O)O)C(C)C` (stereo partly drawn) [GLP-1 (3DMA)]: “resistant to cleavage by DPP IV”. In the case of `CC(C)C[C@H](NC(=O)[C@H](C)NC(=O)[C@@H](N)Cc1c[nH]c2ccccc12)C(=O)N[C@@H](C)C(=O)N1CCC[C@H]1C(=O)N[C@@H](CCCNC(=N)N)C(=O)N[C@H](C(=O)N[C@@H](Cc1ccccc1)C(=O)N[C@@H](C)C(=O)O)C(C)(C)C` [TLE substituted peptide analog, WALAPRXFA] (H-WALAPR[Tle]FA-OH), at thrombin, the cleavage by thrombin result was “not cleaved by thrombin”.

For `CC[C@H](C)[C@H](NC(=O)[C@H](Cc1ccccc1)NC(=O)[C@H](CCC(=O)O)NC(=O)[C@H](CCCCN)NC(=O)[C@H](C)NC(=O)[C@H](C)NC(=O)[C@H](CCC(N)=O)NC(=O)CNC(=O)[C@H](CCC(=O)O)NC(=O)[C@H](CC(C)C)NC(=O)[C@H](Cc1ccc(O)cc1)NC(=O)[C@H](CO)NC(=O)[C@H](CO)NC(=O)[C@@H](NC(=O)[C@H](CC(=O)O)NC(=O)[C@H](CO)NC(=O)[C@@H](NC(=O)[C@H](Cc1ccccc1)NC(=O)[C@@H](NC(=O)CNC(=O)[C@@H](NC(=O)[C@H](C)NC(=O)[C@@H](N)Cc1c[nH]cn1)C(C)(C)C)[C@@H](C)O)[C@@H](C)O)C(C)C)C(=O)N[C@@H](C)C(=O)N[C@@H](Cc1c[nH]c2ccccc12)C(=O)N[C@@H](CC(C)C)C(=O)N[C@H](C(=O)N[C@@H](CCCCN)C(=O)NCC(=O)N[C@@H](CCCNC(=N)N)C(=O)NCC(=O)O)C(C)C` [TLE-modified GLP-1], on human DPP IV, the “degradation by human DPP IV” value is “resistant to degradation by DPP IV”.

In the case of WALAPRSFA [unmodified peptide], the cleavage by thrombin entry at thrombin was “efficiently cleaved by thrombin”. Consider “GLP-1: exogenous GLP-1 given subcutaneously or intravenously to subjects (Deacon et al.); metabolite co-elutes with GLP-I(9-36) amide”, for which the “degradation of infused GLP-1” value in data set [1] (intravenous infusion) is “extensively degraded”. Moreover, the “metabolite share of the increase in plasma immunoreactivity (CO2H-terminal RIA)” value in data set [1] (thirty minutes after subcutaneous GLP-1, diabetic patients (n is 8)) was 88.5+1.9%; in data set [1] (thirty minutes after subcutaneous GLP-1, healthy subjects (n=8)), 78.4+3.2%.
